Entries after “also recorded” stand apart in the source; their conditions may differ. No end group written: not given here.
Tests used:
male ICR mice [1] = assay: Forelimb grip strength test (muscle relaxant effect) after intramuscular administration; format: in vivo, mouse; conditions: for effect on forelimb muscular strength: vs saline control
Method: 40 male ICR mice were divided equally into four groups: one control and three experimental groups. Animals of the control and experimental groups were treated with normal saline and with Az at doses of 0.03, 0.1 and 0.3 mg/kg, respectively. In addition 6 mice were treated with Az at dose of 0.01 mg/kg. The corresponding solutions were injected into the triceps muscles of the mouse forelimbs at a volume of 0.5 mL/kg per each limb. For all animals their basic forelimb grip strength was recorded before the substance administration with a 1027 grip strength meter (Columbus Instruments, Columbus, OH, USA). Further, their grip strength was measured 5, 10, 15, 20, 30, 60, 90 min after the Az (or normal saline) im administration.
Rocuronium was administered intramuscularly as described for the measurement of acute toxicity (Section 5.4.1). Muscle strength was assessed prior to administration of the substance and then 1, 2, 3, 4, 5 min after administration.

in vivo = conditions: male, ICR, mouse, in vivo
Method: (§1) Az acute toxicity was estimated for its intravenous (iv) and intramuscular (im) administration to male ICR mice in a stepwise procedure.
(§2) For the iv route of administration, 20 mice were randomly divided in 5 groups of 4 animals each. The animals of each group received a single dose of Az (0.3, 0.4, 0.5, 0.6, or 0.7 mg/kg, respectively) injected into the lateral tail vein at a volume of 1 mL/kg. For the im route of administration, first two experimental groups of 3 animals each were formed. Az at doses of 0.75 and 1.0 mg/kg, respectively, was injected into the quadriceps muscle of the thigh (quadriceps femoris muscle) of two mouse hind limbs at a volume of 0.5 mL/kg to each muscle. Then, five experimental groups of 5 animals each were formed. Az was injected into the quadriceps muscle of the thigh (quadriceps femoris muscle) of the two hind limbs of male ICR mice at doses of 0.8, 0.775, 0.75, 0.725 and 0.7 mg/kg. The injection volume to each limb was 1 mL/kg. Further, neurotoxic manifestations were recorded in animals at 5, 10, 20, 30, 60 and 90 min and 24 h after administration using the functional observation battery, the number of death was counted as well.
(§3) For the iv and im route of administration, the median lethal dose (LD50) was calculated using a probit analysis. For the im route of administration, the maximum tolerated dose was determined.
(§4) Rocuronium was administered intramuscularly at doses of 0.13 mg/kg (n = 1), 0.1 mg/kg (n = 4) and 0.08 mg/kg (n = 4) in the triceps of the forelimbs of male ICR mice (8–9 weeks old). Control animals were injected with saline (n = 4). The volume of administration was 0.5 mL/kg in each limb.

male ICR mice [2] = assay: in vivo
Method: as §1, §2, §3, §4

male and female ICR mice = format: in vivo, mouse; conditions: 0.15 mg/kg subcutaneously, n = 10
Method: Allergenicity of Az was studied in a delayed-type hypersensitivity test on male (20 animals) and female (20 animals) adult ICR mice. The mice were divided into four groups (two control and two experimental groups) of 10 animals (males or females) per group. Mice of the experimental groups were injected subcutaneously at the base of a tail with Az solution (0.15 mg/kg) emulsified in Freund’s complete adjuvant in a ratio of 1:1 (2 mL/kg). Similarly, the mice in the control groups were administered with a suspension of normal saline in Freund’s complete adjuvant. Five days later all animals received an injection of Az (0.15 mg/kg, 1.33 mL/kg) in the pad of the left hind paw. To estimate the intensity of the studied allergic reaction, 6, 12 and 24 h after the second Az injection the thickness of the left and right hind mouse paws was measured with a digital caliper.

[3] = tested on: hprt gene of CHO-k1 cells
human α7 nAChR = conditions: cited from earlier work
[4] = intramuscular injection to mice (abstract)

DNWWPKPPHQGPRPPRPRPKP-NH2 [Az, azemiopsin]
decrease of grip strength (male ICR mice [1]; 0.1 mg/kg im): 37% | average effective dose at the maximum response point (male ICR mice [1]; 10 min after im injection, male ICR mice): 0.09 mg/kg | effect on forelimb muscular strength (male ICR mice [1]; Az 0.01 mg/kg im, n = 6): No significant differences; also recorded: not effective | effect on forelimb muscular strength (male ICR mice [1]; Az 0.03, 0.1 and 0.3 mg/kg im, n = 10): significant decrease | time of maximal muscle relaxant effect after administration (male ICR mice [1]; all doses studied, im, preserved until the 30th minute): 10 min | duration of muscle relaxant effect (male ICR mice [1]; depending on the dose, im): 25 to 55 min | longest period of action (male ICR mice [1]; dose 0.3 mg/kg im, from the 5th to the 60th minute): 55 min | average effective dose (muscle relaxant effect) (male ICR mice [1]; [4]): 0.09 mg/kg | initial effective dose (muscle relaxant effect) (male ICR mice [1]; [4]): 0.03 mg/kg | initial effective dose (muscle relaxant effect) (male ICR mice [1]; single im injection in forelimb muscles, male ICR mice): 0.03 mg/kg | LD50 at 24 h (in vivo; im): 0.732 ± 0.13 mg/kg | MTD at 24 h (in vivo; im): 0.7 mg/kg | LD50 at 24 h (in vivo; iv): 0.51 mg/kg | time of death after administration (male ICR mice [2]; im 0.725 mg/kg): 19.7 ± 5.9 min | time of death after administration (male ICR mice [2]; im 0.75 mg/kg): 28.8 ± 16.0 min | time of death after administration (male ICR mice [2]; im 0.775 mg/kg): 15.8 ± 4.3 min | time of death after administration (male ICR mice [2]; im 0.8 mg/kg): 12.2 ± 1.8 min | toxicity signs (male ICR mice [2]; im dose of 0.3 mg/kg and lower (grip strength tests)): No toxicity signs | time of appearance of visible toxic signs after administration (male ICR mice [2]; im, large doses): 5 to 7 min | time of complete recovery from the toxic effect after administration (male ICR mice [2]; im, large doses): 24 h | LD50 (male ICR mice [2]; intravenous administration, male ICR mice, probit analysis): 0.51 ± 0.06 mg/kg | allergic effect in the delayed-type hypersensitivity reaction test (male and female ICR mice): no allergic effect | frequency of mutations in the hprt gene ([3]; Az 2.8 to 2000 μg/mL, 4 h, with or without S9, spontaneous 25.2 ± 1.6): 23.5–30.2 × 10^−6 | mutagenic capacity ([3]; Az up to 2000 μg/mL, CHO-k1 cells): did not demonstrate any mutagenic capacity | IC50 (human α7 nAChR): 22 ± 2 µM
